How the values were obtained:
Format in all cases: biochemical
NEU1, NEU2, NEU3, NEU4 = assay: Isoenzyme specificity/selectivity from 4MU-NANA IC50 across the four human neuraminidases; settings: for Target: isoenzyme(s) the compound is specific for, dual (bispecific) when ratio of IC50 is about 3 or less
NEU4 = target: T1, NEU4 (Homo sapiens, UniProt Q8WWR8); assay: IC50 inhibition assay using 4MU-NANA as the substrate, NEU4; set-up: GST; made in house; host or cells: E. coli; settings: 4MU-NANA as the substrate; read-out: IC50 NEU4
T1 sequence (Q8WWR8 1-484): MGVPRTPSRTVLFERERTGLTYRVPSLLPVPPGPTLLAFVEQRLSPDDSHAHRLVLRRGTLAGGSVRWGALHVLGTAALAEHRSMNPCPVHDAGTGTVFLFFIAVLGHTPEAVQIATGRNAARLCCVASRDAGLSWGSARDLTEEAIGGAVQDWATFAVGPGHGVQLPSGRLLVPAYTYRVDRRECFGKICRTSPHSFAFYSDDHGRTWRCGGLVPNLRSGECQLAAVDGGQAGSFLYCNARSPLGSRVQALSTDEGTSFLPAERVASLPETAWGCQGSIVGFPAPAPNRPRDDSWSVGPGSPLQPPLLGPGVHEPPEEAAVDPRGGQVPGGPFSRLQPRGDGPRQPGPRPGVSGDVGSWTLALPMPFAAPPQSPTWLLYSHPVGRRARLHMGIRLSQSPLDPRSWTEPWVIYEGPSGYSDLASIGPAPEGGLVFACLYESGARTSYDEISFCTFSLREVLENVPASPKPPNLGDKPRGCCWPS

NEU3 = target: T2, NEU3 (Homo sapiens, UniProt Q9UQ49); assay: IC50 inhibition assay using 4MU-NANA as the substrate, NEU3; set-up: MBP (N); made in house; host or cells: E. coli; settings: 4MU-NANA as the substrate; read-out: IC50 NEU3
T2 sequence (Q9UQ49 1-428): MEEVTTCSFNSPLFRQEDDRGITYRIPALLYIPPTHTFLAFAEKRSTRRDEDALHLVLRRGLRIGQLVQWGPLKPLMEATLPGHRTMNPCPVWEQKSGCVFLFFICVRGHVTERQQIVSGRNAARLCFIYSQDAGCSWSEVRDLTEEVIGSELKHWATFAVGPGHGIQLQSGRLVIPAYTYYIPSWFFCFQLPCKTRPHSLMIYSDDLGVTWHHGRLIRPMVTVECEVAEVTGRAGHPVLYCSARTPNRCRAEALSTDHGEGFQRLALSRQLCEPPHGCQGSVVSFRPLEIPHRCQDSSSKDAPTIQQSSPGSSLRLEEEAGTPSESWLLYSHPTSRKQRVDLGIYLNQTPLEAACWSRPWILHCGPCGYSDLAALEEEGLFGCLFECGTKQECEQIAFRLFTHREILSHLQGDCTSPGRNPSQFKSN

NEU1 = target: T3, NEU1 (Homo sapiens, UniProt Q99519); assay: IC50 inhibition assay using 4MU-NANA as the substrate, NEU1; settings: 4MU-NANA as the substrate; read-out: IC50 NEU1
T3 construct: made in house; host or cells: HEK293 (lentiviral transduction), crude lysate
Protocol: Two weeks after transduction cells were harvested and a crude lysate showing ˜200 nmol/h mg of sialidase activity used in experiments.
Assays were performed with duplicates for each point and IC50 was obtained by plotting the data with Graphpad™ Prism 5.0.

Target (NEU1, NEU2, NEU3, NEU4) | IC50 (NEU4) | IC50 (NEU3) | IC50 (NEU1) | Selectivity (NEU1, NEU2, NEU3, NEU4; from 4MU-NANA IC50, for the isoenzyme(s) in column Target) | Compound
NEU1 | 150 ± 40 µM | 35 ± 6 µM | 6.5 ± 0.7 µM | – | CC(=O)N[C@H]1[C@H]([C@H](O)[C@H](O)CNC(=O)c2cccc(N)c2)OC(C(=O)O)=C[C@@H]1O [compound 61, 5-Acetamido-9-(3-amino)benzamido-2,6-anhydro-3,5-dideoxy-b-glycero-D-galacto-non-2-enonic acid]
NEU1/ NEU2 | > 500 µM | > 500 µM | 32 ± 5 µM | – | CC(C)CC(=O)N[C@H]1[C@H]([C@H](O)[C@H](O)CO)OC(C(=O)O)=C[C@@H]1O [compound 35, 5-(3-methylbutanamido)-2,6-anhydro-3,5-dideoxy-D-glycero-D-galacto-non-2-enonic acid]
NEU3/ NEU4 | 0.97 ± 0.24 µM | 1 ± 0.1 µM | > 500 µM | – | CC(=O)N[C@H]1[C@H]([C@H](O)[C@H](O)Cn2cc(-c3ccc(Oc4ccccc4)cc3)nn2)OC(C(=O)O)=C[C@@H]1O [7j]
NEU2 | > 500 µM | > 500 µM | > 500 µM | – | CC(=O)Nc1ccc(-c2cn(CC(=O)N[C@@H]3C(O)C=C(C(=O)O)OC3C(O)C(O)CO)nn2)cc1 (some centres unmarked) [compound 48]
NEU3/ NEU4 | 5 ± 0.9 µM | 3.3 ± 0.5 µM | 140 ± 30 µM | – | CC(=O)N[C@H]1[C@H]([C@H](O)[C@H](O)Cn2cc(-c3ccc(C(F)(F)F)cc3)nn2)OC(C(=O)O)=C[C@@H]1O [7g]
NEU1 | 370 ± 160 µM | 150 ± 20 µM | 1.7 ± 0.1 µM | – | CC(C)CCC(=O)N[C@H]1[C@H]([C@H](O)[C@H](O)CO)OC(C(=O)O)=C[C@@H]1O [compound 36, 5-(4-Methylpentanamido)-2,6-anhydro-3,5-dideoxy-D-glycero-D-galacto-non-2-enonic acid]
NEU1 | 24 ± 6 µM | 7.2 ± 1.2 µM | 1.9 ± 0.4 µM | – | CC(=O)Nc1ccc(C(=O)NC[C@@H](O)[C@@H](O)[C@@H]2OC(C(=O)O)=C[C@H](O)[C@H]2NC(C)=O)cc1 [compound 58, 5-Acetamido-9-(4-acetamido)benzamido-2,6-anhydro-3,5-dideoxy-d-glycero-d-galacto-non-2-enonic acid]
NEU1 | 87 ± 18 µM | 60 ± 7 µM | 18 ± 1 µM | – | CCC(=O)N[C@H]1[C@H]([C@H](O)[C@H](O)CO)OC(C(=O)O)=C[C@@H]1O [compound 29, 5-Propionamido-2,6-anhydro-3,5-dideoxy-D-glycero-D-galacto-non-2-enonic acid]
NEU4 | 66 ± 16 µM | > 500 µM | > 500 µM | – | CC(=O)N[C@H]1[C@H]([C@H](O)[C@H](O)Cn2cc(-c3ccc(C(=O)O)cc3)nn2)OC(C(=O)O)=C[C@@H]1NC(=O)NCCC(=O)O [compound 18]
NEU3/ NEU4 | 3 ± 0.3 µM | 1.1 ± 0.1 µM | 240 ± 90 µM | – | CC(=O)N[C@@H]1C(O)C=C(C(=O)O)OC1C(O)C(O)Cn1cc(-c2ccc(C(=O)O)cc2)nn1 (some centres unmarked) [7h]
NEU1 | 150 ± 40 µM | 170 ± 40 µM | 6.9 ± 0.4 µM | – | O=C(O)C1=C[C@H](O)[C@@H](NC(=O)C2CC2)[C@H]([C@H](O)[C@H](O)CO)O1 [compound 37, 5-Cyclopropanecarboxamido-2,6-anhydro-3,5-dideoxy-D-glycero-D-galacto-non-2-enonic acid]
NEU1 | 81 ± 15 µM | 100 ± 20 µM | 12 ± 2 µM | – | O=C(O)C1=C[C@H](O)[C@@H](NC(=O)C2CCC2)[C@H]([C@H](O)[C@H](O)CO)O1 [compound 38, 5-Cyclobutanecarboxamido-2,6-anhydro-3,5-dideoxy-D-glycero-D-galacto-non-2-enonic acid]
NEU1 | 470 ± 200 µM | 210 ± 70 µM | 2.1 ± 0.2 µM | – | CCCCCCC(=O)N[C@H]1[C@H]([C@H](O)[C@H](O)CO)OC(C(=O)O)=C[C@@H]1O [compound 33, 5-Heptanamido-2,6-anhydro-3,5-dideoxy-D-glycero-D-galacto-non-2-enonic acid]
NEU1/ NEU2/ NEU3/ NEU4 | 36 ± 5 µM | 46 ± 7 µM | 110 ± 10 µM | – | CN(C)c1ccc(-c2cn(CC(=O)N[C@@H]3C(O)C=C(C(=O)O)OC3C(O)C(O)CO)nn2)cc1 (stereo partly drawn) [compound 47, 5-(2-(4-(4-(dimethylamino)phenyl-1H-1,2,3-triazol-1-yl)acetamido))-2,3,5-trideoxy-D-glycero-D-galacto-2-nonulopyranosonic acid]
NEU1 | > 500 µM | 480 ± 100 µM | 11 ± 1 µM | – | O=C(O)C1=C[C@H](O)[C@@H](NC(=O)c2ccccc2)[C@H]([C@H](O)[C@H](O)CO)O1 [compound 39, 5-Benzamido-2,6-anhydro-3,5-dideoxy-D-glycero-D-galacto-non-2-enonic acid]
NEU4 | 1.1 ± 0.2 µM | 15 ± 1 µM | > 500 µM | – | CC(=O)N[C@@H]1C(O)C=C(C(=O)O)OC1C(O)C(O)Cn1cc(CNC(=O)c2ccccc2)nn1 (some centres unmarked) [compound 26]
NEU3/ NEU4 | 2.6 ± 0.3 µM | 5.9 ± 0.4 µM | 47 ± 6 µM | – | COc1ccc(-c2cn(C[C@@H](O)[C@@H](O)[C@@H]3OC(C(=O)O)=C[C@H](O)[C@H]3NC(C)=O)nn2)cc1 [7e, 5-Acetamido-(4-methoxyphenyl)-2,6-anhydro-3,5-dideoxy-b-glycero-D-galacto-non-2-enonic acid]
NEU4 | 1.3 ± 0.2 µM | 17 ± 2 µM | 100 ± 40 µM | 10 | CC(=O)N[C@H]1[C@H]([C@H](O)[C@H](O)Cn2cc(-c3ccc(F)cc3)nn2)OC(C(=O)O)=C[C@@H]1O [7f]
NEU3/ NEU4 | 12 ± 1 µM | 8.7 ± 0.9 µM | 76 ± 16 µM | – | CC(=O)N[C@H]1[C@H]([C@H](O)[C@H](O)Cn2cc(-c3ccc(N)cc3)nn2)OC(C(=O)O)=C[C@@H]1O [7c]
NEU2 | 300 ± 60 µM | > 500 µM | > 500 µM | – | O=C(Cn1cc(-c2ccc(C(F)(F)F)cc2)nn1)N[C@@H]1C(O)C=C(C(=O)O)OC1C(O)C(O)CO (some centres unmarked) [compound 41]
NEU1/ NEU3 | 52 ± 9 µM | 7.1 ± 0.7 µM | 6.5 ± 1.1 µM | – | CC(=O)Nc1cccc(C(=O)NC[C@@H](O)[C@@H](O)[C@@H]2OC(C(=O)O)=C[C@H](O)[C@H]2NC(C)=O)c1 [compound 60, 5-Acetamido-9-(3-acetamido)benzamido-2,6-anhydro-3,5-dideoxy-d-glycero-d-galacto-non-2-enonic acid]
NEU3/ NEU4 | 28 ± 3 µM | 9.3 ± 0.8 µM | 190 ± 40 µM | – | CC(=O)N[C@H]1[C@H]([C@H](O)[C@H](O)Cn2cc(-c3ccc(N(C)C)cc3)nn2)OC(C(=O)O)=C[C@@H]1O [7a]
NEU1 | 190 ± 70 µM | > 500 µM | 1.6 ± 0.2 µM | – | CCCCC(=O)NC[C@@H](O)[C@@H](O)[C@@H]1OC(C(=O)O)=C[C@H](O)[C@H]1NC(=O)CC [compound 65, 5-Propionamido-9-pentanamido-2,6-anhydro-3,5-dideoxy-D-glycero-D-galacto-non-2-enonic acid]
NEU3/ NEU4 | 11 ± 1 µM | 5.5 ± 0.5 µM | 59 ± 5 µM | – | CC(=O)Nc1ccc(-c2cn(C[C@@H](O)[C@@H](O)[C@@H]3OC(C(=O)O)=C[C@H](O)[C@H]3NC(C)=O)nn2)cc1 [7b]

Compound | Target (NEU1, NEU2, NEU3, NEU4) | IC50 (NEU4) | IC50 (NEU3) | IC50 (NEU1) | Selectivity (NEU1, NEU2, NEU3, NEU4; from 4MU-NANA IC50, for the isoenzyme(s) in column Target)
CCCCCC(=O)NC[C@@H](O)[C@@H](O)[C@@H]1OC(C(=O)O)=C[C@H](O)[C@H]1NC(=O)CC [compound 66, 5-Propionamido-9-hexanamido-2,6-anhydro-3,5-dideoxy-D-glycero-D-galacto-non-2-enonic acid] | NEU1 | 210 ± 90 µM | 260 ± 70 µM | 1.4 ± 0.2 µM | –

Reference: patent US11773129B2, “Methods of preventing or treating atherosclerosis with inhibitors of specific isoenzymes of human neuraminidase” (THE GOVERNORS OF THE UNIVERSITY OF ALBERTA, priority 2017, dated 2023)
